# Experimental data taken from patent US20210230131A1, “POLYAMINO BIARYL COMPOUNDS AND THEIR USE” (INSERM (INSTITUT NATIONAL DE LA SANTÉ ET DE LA RECHERCHE …, priority 2018, published 2021).
# Key:
# [1] = test system: Aβ1-42 peptide secretion; test: Quantification of secreted Aβ1-42 by ELISA in SY5Y-APP695WT cells; assay type: cell-based; details: Homo sapiens; concentration inhibiting 50% of Aβ1-42 peptide secretion in SY5Y cells; 24 h treatment; mean ± SD of at least two experiments in triplicate
# Method: (§1) Cell culture and treatment. The human neuroblastoma cell line […] was maintained in Dulbecco's modified Eagle medium (DMEM, high glucose, pyruvate-GIBCO by Life Technologies) supplemented with 10% foetal bovine serum, 2 mM L-glutamine, 1 mM non-essential amino acids and penicillin/streptomycin (GIBCO by Life Technologies) at 37° C. in a 5% CO2 humidified incubator. […] cells were maintained in 75 cm^2 culture flasks (Falcon) with supplemented DMEM medium until they reached 80% of confluence 24 h before treatment. For compounds treatment, a 10 mM stock solution was diluted in freshly supplemented DMEM medium to obtain the precise final concentration of drug. Bafilomycin A1 (BafA1), the vacuolar […] type H+ ATPase inhibitor, was purchased from Merck Millipore and was used at a final dilution of 100 nM. For drug treatment, cells were plated at a rate of 5·10^5 cells per well into 12-well plates (Falcon) and cultured with 1 mL supplemented DMEM cell medium for 24 h before drug exposure. The following day, cell medium was replaced with fresh medium containing drugs diluted at the indicated concentrations. Cells were treated for 24 h. At the end of treatments, the cell medium was collected and kept at -80° C. until use for dosage. Then, cells were rinsed once with PBS and extracted in 100 μL of Laemmli buffer (10 mM Tris, 20% glycerol and 2% Sodium dodecyl sulfate) using a cell-scraper. The cell lysate was further sonicated (30 pulses of 0.5 s, 60 Hz) for 5 min. Total protein concentration was determined using the Pierce BCA Protein Assay Kit (Thermo scientific) according to the manufacturer's instructions. Samples were stored at -80° C. until analysis. Quantification of secreted Aβ1-40/1-42 and sAPPα/sAPPβ. Conditioned media of […] collected at the end of treatments were centrifuged at 1000 g for 5 min to eliminate cells debris. Aβ1-40 and Aβ1-42 peptide concentrations in […] were determined using amyloid-beta 40 and 42 Human ELISA kits (Invitrogen) according to the manufacturer's instructions after 1:10 and 1:2 dilutions of supernatants in ELISA buffer, respectively. sAPPα and sAPPβ concentrations in ng/mL were determined using the sAPPα/sAPPβ kit (Meso Scale Diagnostics, MSD®) according to the manufacturer's instructions. Compounds of the invention (compounds 24-37, 41, 44 and 51-58) were evaluated for their ability to modulate APP processing on SY5Y human neuroblastoma cell line stably expressing the neuronal isoform of human wild-type APP695 (SYSY-APPwt). Aβ levels (Aβ1-40 and Aβ1-42) after treatment with reference and tested compounds were measured by ELISA (Table 2). […] APP carboxy-terminal fragments (αCTFs and AICD) were measured by Western blot and quantified. The effect of reference and tested compounds on αCTFs and AICD are expressed as the intensity of corresponding western-blot bands resulting from the secretase cleavages.
# [2] = test system: Aβ1-40 peptide secretion; test: Quantification of secreted Aβ1-40 by ELISA in SY5Y-APP695WT cells; assay type: cell-based; details: Homo sapiens; concentration inhibiting 50% of Aβ1-40 peptide secretion in SY5Y cells; 24 h treatment; mean ± SD of at least two experiments in triplicate
# Method: as §1
# [3] = test system: AICD; test: AICD by Western blot in SY5Y-APP695WT cells; assay type: cell-based, human; details: AICD increase compared to chloroquine ([AICD]compound/[AICD]CQ) at 3 μM; mean of at least three experiments
# Excerpt: (§2) Antibodies. Primary antibodies used in this study for western-blot analysis included a homemade rabbit antiserum against the last 17 amino acids of human APP protein sequence, named APP-Cter-C17 (1/5000 in TBS-M). Anti-β-actin (1/10 000 in TBS-M) was obtained from Sigma. Anti-LC3B (1/2000 in TBS-BSA) and anti-p62/SQSTM1 (1/2000 in TBS-M) antibodies were purchased from Cell Signaling Technology. Secondary antibodies (peroxidase-labeled goat anti-rabbit IgG, 1/5000 or peroxidase-labeled horse anti-mouse IgG, 1/50000 in TBS-T) were obtained from Vector Laboratories.
# (§3) Cell culture and treatment. The human neuroblastoma cell line SY5Y-APP^695WT was maintained in Dulbecco's modified Eagle medium (DMEM, high glucose, pyruvate—GIBCO by Life Technologies) supplemented with 10% foetal bovine serum, 2 mM L-glutamine, 1 mM non-essential amino acids and penicillin/streptomycin (GIBCO by Life Technologies) at 37° C. in a 5% CO2 humidified incubator. SY5Y-APP^695WT cells were maintained in 75 cm^2 culture flasks (Falcon) with supplemented DMEM medium until they reached 80% of confluence 24 h before treatment.
# (§4) For drug treatment, cells were plated at a rate of 5·10^5 cells per well into 12-well plates (Falcon) and cultured with 1 mL supplemented DMEM cell medium for 24 h before drug exposure. The following day, cell medium was replaced with fresh medium containing drugs diluted at the indicated concentrations. Cells were treated for 24 h. At the end of treatments, the cell medium was collected and kept at −80° C. until use for dosage. Then, cells were rinsed once with PBS and extracted in 100 μL of Laemmli buffer (10 mM Tris, 20% glycerol and 2% Sodium dodecyl sulfate) using a cell-scraper. The cell lysate was further sonicated (30 pulses of 0.5 s, 60 Hz) for 5 min. Total protein concentration was determined using the Pierce BCA Protein Assay Kit (Thermo scientific) according to the manufacturer's instructions. Samples were stored at −80° C. until analysis.
# (§5) Western Blot Analysis. Cell protein lysates were prepared for western-blot analysis by diluting the sample with 1 volume of NuPAGE® lithium dodecyl sulfate (LDS) 2× sample buffer supplemented with 20% NuPAGE® sample reducing agents (Invitrogen). Samples were heat 10 min at 100° C. 10 μg of total proteins per well were loaded onto a precast 4-12% Criterion XT Bis-Tris polyacrylamide gel (Bio-Rad) and electrophoresis was achieved after applying a tension of 150 V during 90 min using a Criterion electrophoresis Cell with the NuPAGE® MOPS SDS running buffer (1×). Proteins were transferred to a nitrocellulose membrane of […] pore size (G&E Healthcare) using the Criterion blotting system and applying a tension of 100 V for 45 min. To resolve proteins of low molecular weights such as carboxy-terminal fragments of APP, 12% Criterion XT Bis-Tris polyacrylamide gels (Bio-Rad) were used and electrophoresis was performed during 70 min at 150 V in a NuPAGE® MES SDS running buffer (1×). Proteins were transferred to a nitrocellulose membrane of 0.2 μm pore size (G&E Healthcare) at 100 V for 40 min. Molecular weights calibration was achieved using molecular weight markers (Novex and Magic Marks, Life Technologies). Protein transfer and quality were determined by a reversible Ponceau Red coloration (0.2% Xylidine Ponceau Red and 3% Trichloroacetic acid). Membranes were then blocked in 25 mM Tris-HCl pH 8.0, 150 mM NaCl, 0.1% Tween-20 (v/v) (TBS-T) and 5% (w/v) of skimmed milk (TBS-M) or 5% (w/v) of bovine serum albumin (TBS-BSA) depending on the antibody during 1 h. Membrane was rinsed three-times 10 min in TBS-T before incubation with the primary antibody overnight at 4° C. Membrane was rinsed 3 times 10 min with TBS-T and then incubated with the secondary antibody for 45 min at room temperature (RT). […] Quantifications of protein expression levels were performed with ImageJ Software (NIH). […]
# [4] = test system: CTFα; test: APP carboxy-terminal fragment αCTF by Western blot in SY5Y-APP695WT cells; assay type: cell-based, human; details: CTFα increase compared to chloroquine ([CTF]compound/[CTF]CQ) at 3 μM; mean of at least three experiments
# Excerpt: as §2, §3, §4, §5
IC50 [1] [µM],IC50 [2] [µM],Compound,AICD vs CQ (3 μM) [3],CTFα vs CQ (3 μM) [4]
3.3 ± 2.1,2.1 ± 0.6,"c1cc(-c2ccc(NCCCN3CCCCC3)c(OCCN3CCCCC3)c2)ccc1CN1CCCCC1 [Compound 24, 2-[2-(Piperidin-1-yl)ethoxy]-N-[3-(piperidin-1-yl)propyl]-4-[4-(piperidin-1-ylmethyl)phenyl]aniline]",2.5,2.6
4.1 ± 1.3,2.6 ± 0.1,"c1ccc(-c2ccc(NCCCN3CCCCC3)c(OCCN3CCCCC3)c2)c(CN2CCCCC2)c1 [Compound 27, 2-[2-(Piperidin-1-yl)ethoxy]-N-[3-(piperidin-1-yl)propyl]-4-[2-(piperidin-1-ylmethyl)phenyl]aniline]",2.7,4.3
2.7 ± 0.8,2.6 ± 0.2,"CN1CCN(Cc2ccccc2-c2ccc(NCCCN3CCCCC3)c(OCCN3CCCCC3)c2)CC1 [Compound 29, 4-(2-[(4-Methylpiperazin-1-yl)methyl]phenyl)-2-[2-(piperidin-1-yl)ethoxy]-N-[3-(piperidin-1-yl)propyl]aniline]",3.7,5.1
5.4 ± 0.4,5.1 ± 1.3,"CN(C)CCCNc1ccc(-n2ccc(CN3CCN(C)CC3)c2)cc1OCCN1CCCCC1 [Compound 58, N-[3-(dimethylamino)propyl]-4-(3-[(4-methylpiperazin-1-yl)methyl]-1H-pyrrol-1-yl}-2-[2-(piperidin-1-yl)ethoxy]aniline]",1.8,3.0
3.4 ± 2,2.8 ± 1.1,"CN(C)CCCNc1ccc(-n2ccc(CN3CCOCC3)c2)cc1OCCN1CCCCC1 [Compound 57, N-[3-(Dimethylamino)propyl]-4-[3-(morpholine-4-ylmethyl)-1H-pyrrol-1-yl]-2-[2-(piperidin-1-yl)ethoxy]aniline]",2.6,2.2
6.5 ± 2,5 ± 0.9,"CN(C)Cc1ccn(-c2ccc(NCCCN3CCCCC3)c(OCCN3CCCCC3)c2)c1 [Compound 51, 4-(3-[(Dimethylamino)methyl]-1H-pyrrol-1-yl)-2-[2-(piperidin-1-yl)ethoxy]-N-[3-(piperidin-1-yl)propyl]aniline]",2.0,3.6
3.5 ± 1.1,3.3 ± 0.2,"c1cn(-c2ccc(NCCCN3CCCCC3)c(OCCN3CCCCC3)c2)cc1CN1CCOCC1 [Compound 53, 4-[3-(Morpholin-4-ylmethyl)-1H-pyrrol-1-yl]-2-[2-(piperidin-1-yl)ethoxy]-N-[3-(piperidin-1-yl)propyl]aniline]",3.3,1.7
4 ± 0.4,5.2 ± 0.1,"c1ccc(-c2ccc(NCCCN3CCCCC3)c(OCCN3CCCCC3)c2)cc1 [Compound 37, 3-(2-(Piperidin-1-yl)ethoxy)-N-(3-(piperidin-1-yl)propyl)-[1,1′-biphenyl]-4-amine]",2.1,2.4
1.6 ± 0.8,1.7 ± 0.3,"CN(C)Cc1ccccc1-c1ccc(NCCCCN2CCCCC2)c(OCCN2CCCCC2)c1 [Compound 36, 2′-((Dimethylamino)methyl)-N-(4-(piperidin-1-yl)butyl)-3-(2-(piperidin-1-yl)ethoxy)-[1,1′-biphenyl]-4-amine]",3.0,4.2
4.2 ± 1.5,2.8 ± 1.2,"c1ccc(-c2ccc(NCCCN3CCCCC3)c(OCCN3CCCCC3)c2)c(CN2CCOCC2)c1 [Compound 28, 4-[2-(Morpholin-4-ylmethyl)phenyl]-2-[2-(piperidin-1-yl)ethoxy]-N-[3-(piperidin-1-yl)propyl]aniline]",1.7,3.1
5 ± 0.3,3.7 ± 1.3,"c1cn(-c2ccc(NCCCN3CCCCC3)c(OCCN3CCCCC3)c2)cc1CN1CCCCC1 [Compound 52, 2-[2-(Piperidin-1-yl)ethoxy]-N-[3-(piperidin-1-yl)propyl]-4-[3-(piperidin-1-ylmethyl)-1H-pyrrol-1-yl]aniline]",1.2,3.3
1.2 ± 0.6,1.4 ± 0.5,"CN(C)Cc1ccccc1-c1ccc(NCCN2CCCCC2)c(OCCN2CCCCC2)c1 [Compound 33, 2′-((Dimethylamino)methyl)-3-(2-(piperidin-1-yl)ethoxy)-N-(2-(piperidin-1-yl)ethyl)-[1,1′-biphenyl]-4-amine]",4.8,5.0
12.1 ± 7.8,8.3 ± 4,"CN1CCN(Cc2ccn(-c3ccc(NCCCN4CCCCC4)c(OCCN4CCCCC4)c3)c2)CC1 [Compound 54, 4-(3-[(4-Methylpiperazin-1-yl)methyl]-1H-pyrrol-1-yl)-2-[2-(piperidin-1-yl)ethoxy]-N-[3(piperidin-1-yl)propyl]aniline]",,
,,"CCN(CC)CCCC(C)Nc1ccnc2cc(Cl)ccc12 (stereo not shown) [CQ, chloroquine, reference compound]",1,1
